Test results reported in US20140072613A1, “Compositions and Methods for Treating Cutaneous Scarring” (priority 2012, published 2014).
Where no end group is shown, it is not given here.

Legend:
[1] = tested on: hypertrophic scarring induced by mechanical loading; experiment: Mouse model of hypertrophic scarring induced by mechanical loading: scar area, gross and histological; assay type: in vivo; settings: 50 μg/kg intraperitoneal daily day 0 through day 14
Experimental: Dorsal skins were distracted laterally along both sides of the wound edge by a distraction rate of 1 mm/day from day 4 to day 7, and then 2 mm/day from day 8 to day 14. […] At day 14, skin wounds were photographed digitally, and scar areas were measured by Image J software. Tissue was harvested for RNA extraction, Florescence-Activated Cell Sorting (FACS) analysis, and histological examination.
Digital photographs were taken on the day of surgery and every two days thereafter. Gross scar appearance was assessed by tracing the wound margin and calculating the hypertrophic scar area.
Scar samples from each mouse were fixed in 10% formalin and embedded in paraffin. Sections were made and stained with hematoxylin and eosin (H&E) to assess scar tissue deposition. […] Scar areas were outlined, and areas were measured by using Image J software. Scale bar=100 μm.

266 human kinases [2] = experiment: biochemical; assay type: biochemical; settings: at 100 μM
Source text: (§1) Specifically, in these assays, a positively charged substrate is phosphorylated with a radiolabeled phosphate group from an ATP if the kinase is not inhibited by an inhibitor peptide. The positively charged substrate then is attracted to a negatively charged filter membrane, quantified with a scintillation counter, and compared to a 100% activity control.

CaMKI (h) = CaMKI (h) (Homo sapiens, UniProt Q14012); experiment: biochemical
Source text: as §1

MSK1 (h) = MSK1 (h) (Homo sapiens, UniProt O75582); experiment: biochemical
Source text: as §1

EphA2 (h) = EphA2 (h) (Homo sapiens, UniProt P29317); experiment: biochemical
Source text: as §1

Pim-1 (h) = Pim-1 (h) (Homo sapiens, UniProt P11309); experiment: biochemical
Source text: as §1

FGFR2 (h) = FGFR2 (h) (Homo sapiens, UniProt P21802); experiment: biochemical
Source text: as §1

CaMK1δ (h) = CaMK1δ (h) (Homo sapiens, UniProt Q8IU85); experiment: biochemical
Source text: as §1

Fes(h) = Fes(h) (Homo sapiens, UniProt P07332); experiment: biochemical
Source text: as §1

Fgr (h) = Fgr (h) (Homo sapiens, UniProt P09769); experiment: biochemical
Source text: as §1

Yes (h) = Yes (h) (Homo sapiens, UniProt P07947); experiment: biochemical
Source text: as §1

MAPKAP-K2 (h) = MAPKAP-K2 (h) (Homo sapiens, UniProt P49137); experiment: Millipore radiometric kinase assay (IC50 Profiler Express / kinase profiling); assay type: biochemical
Source text: as §1

MAPKAP-K3 (h) = MAPKAP-K3 (h) (Homo sapiens, UniProt Q16644); experiment: as above; assay type: biochemical
Source text: as §1

TrkB (h) = TrkB (h) (Homo sapiens, UniProt Q16620); experiment: as above; assay type: biochemical
Source text: as §1

Melanocortin 4 = target: T1, Melanocortin 4 (Homo sapiens, UniProt P32245); experiment: Cerep binding assay (radiolabelled ligand competition)
T1 construct: Cerep
Experimental: (§2) Each binding assay was performed in 6-control wells with or without vehicle plus an 8-point dose-response of the relevant reference compound.

Serotonin 2A = target: T2, Serotonin 2A (Homo sapiens, UniProt P28223); experiment: as above
T2 construct: Cerep
Experimental: as §2

Neurokinin 2 = target: T3, Neurokinin 2 (Homo sapiens, UniProt P21452); experiment: as above
T3 construct: Cerep
Experimental: as §2

LOK (h) = LOK (h) (Homo sapiens, UniProt O94804); experiment: Millipore radiometric kinase assay (IC50 Profiler Express); assay type: biochemical
Source text: as §1

EGFR (L861Q) (h) = EGFR (L861Q) (h) (Homo sapiens, UniProt P00533, L861Q); experiment: as above; assay type: biochemical
Source text: as §1

DRAK1 (h) = target: T4, DRAK1 (h) (Homo sapiens, UniProt Q9UEE5); experiment: as above; assay type: biochemical
T4 sequence (Q9UEE5 1-414): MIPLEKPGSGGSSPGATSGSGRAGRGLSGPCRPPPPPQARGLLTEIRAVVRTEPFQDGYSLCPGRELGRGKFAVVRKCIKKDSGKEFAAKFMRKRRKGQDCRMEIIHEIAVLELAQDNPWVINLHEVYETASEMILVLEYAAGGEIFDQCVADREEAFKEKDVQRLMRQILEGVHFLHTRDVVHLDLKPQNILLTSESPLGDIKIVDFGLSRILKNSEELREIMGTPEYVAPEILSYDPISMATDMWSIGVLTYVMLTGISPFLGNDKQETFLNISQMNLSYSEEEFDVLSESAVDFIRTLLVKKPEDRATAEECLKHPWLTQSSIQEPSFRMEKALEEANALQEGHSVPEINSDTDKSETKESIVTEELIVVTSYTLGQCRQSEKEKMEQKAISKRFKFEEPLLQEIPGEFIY
Source text: as §1

DMPK (h) = target: T5, DMPK (h) (Homo sapiens, UniProt Q09013); experiment: as above; assay type: biochemical
T5 sequence (Q09013 1-629): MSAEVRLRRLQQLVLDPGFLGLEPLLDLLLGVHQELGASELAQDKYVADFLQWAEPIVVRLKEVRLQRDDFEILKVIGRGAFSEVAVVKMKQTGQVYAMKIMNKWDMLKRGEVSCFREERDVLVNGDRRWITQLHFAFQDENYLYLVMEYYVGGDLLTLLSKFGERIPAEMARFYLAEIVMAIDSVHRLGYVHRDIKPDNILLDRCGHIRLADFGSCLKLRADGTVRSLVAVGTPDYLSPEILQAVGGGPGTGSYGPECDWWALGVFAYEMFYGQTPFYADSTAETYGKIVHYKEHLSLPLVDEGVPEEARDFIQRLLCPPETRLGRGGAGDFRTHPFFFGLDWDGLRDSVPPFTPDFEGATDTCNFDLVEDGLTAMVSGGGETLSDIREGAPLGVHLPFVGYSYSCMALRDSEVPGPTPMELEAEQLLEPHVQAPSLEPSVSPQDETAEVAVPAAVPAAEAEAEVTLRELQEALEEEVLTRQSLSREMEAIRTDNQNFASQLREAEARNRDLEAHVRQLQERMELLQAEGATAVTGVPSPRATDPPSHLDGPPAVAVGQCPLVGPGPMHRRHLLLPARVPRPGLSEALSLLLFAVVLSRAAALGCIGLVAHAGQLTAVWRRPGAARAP
Source text: as §1

266 human kinases [3] = target: 266 human kinases (Homo sapiens, UniProt Q9H1R3); experiment: biochemical; assay type: biochemical; settings: MLCK(h); 100 μM
Source text: as §1

CaMKIV = CaMKIV (Homo sapiens, UniProt Q16566); settings: AIP 1 μM; cited from earlier work
[4] = tested on: Ca^2+/calmodulin-dependent protein kinase II (CaMKII); settings: cited from earlier work
PKA = settings: AIP 1 μM; cited from earlier work
PKC = settings: AIP 1 μM; cited from earlier work
[5] = read-out: % Activity of off-target receptor

TrkB (h), sequence (Q16620 32-822): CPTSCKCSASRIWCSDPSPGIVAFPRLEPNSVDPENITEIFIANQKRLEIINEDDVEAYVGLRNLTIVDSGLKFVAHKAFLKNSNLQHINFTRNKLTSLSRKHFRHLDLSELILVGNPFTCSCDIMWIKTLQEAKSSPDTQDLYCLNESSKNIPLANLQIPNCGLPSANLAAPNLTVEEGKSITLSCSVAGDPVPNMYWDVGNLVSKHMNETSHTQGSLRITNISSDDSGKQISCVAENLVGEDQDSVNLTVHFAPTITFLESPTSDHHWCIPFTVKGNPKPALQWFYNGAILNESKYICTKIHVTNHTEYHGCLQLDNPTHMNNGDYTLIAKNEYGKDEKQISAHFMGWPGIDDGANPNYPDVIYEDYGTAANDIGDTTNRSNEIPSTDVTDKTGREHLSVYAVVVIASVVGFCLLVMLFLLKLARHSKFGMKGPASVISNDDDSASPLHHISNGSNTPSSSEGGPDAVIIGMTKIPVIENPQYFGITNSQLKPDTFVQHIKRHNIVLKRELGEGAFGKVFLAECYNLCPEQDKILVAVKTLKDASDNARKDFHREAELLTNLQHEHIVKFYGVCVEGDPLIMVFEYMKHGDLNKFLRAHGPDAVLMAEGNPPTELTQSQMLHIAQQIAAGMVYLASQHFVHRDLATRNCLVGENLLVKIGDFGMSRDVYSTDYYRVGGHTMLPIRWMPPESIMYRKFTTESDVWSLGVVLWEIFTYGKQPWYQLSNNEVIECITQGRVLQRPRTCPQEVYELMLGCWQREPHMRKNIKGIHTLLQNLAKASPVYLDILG
MAPKAP-K2 (h), sequence (P49137 whole entry): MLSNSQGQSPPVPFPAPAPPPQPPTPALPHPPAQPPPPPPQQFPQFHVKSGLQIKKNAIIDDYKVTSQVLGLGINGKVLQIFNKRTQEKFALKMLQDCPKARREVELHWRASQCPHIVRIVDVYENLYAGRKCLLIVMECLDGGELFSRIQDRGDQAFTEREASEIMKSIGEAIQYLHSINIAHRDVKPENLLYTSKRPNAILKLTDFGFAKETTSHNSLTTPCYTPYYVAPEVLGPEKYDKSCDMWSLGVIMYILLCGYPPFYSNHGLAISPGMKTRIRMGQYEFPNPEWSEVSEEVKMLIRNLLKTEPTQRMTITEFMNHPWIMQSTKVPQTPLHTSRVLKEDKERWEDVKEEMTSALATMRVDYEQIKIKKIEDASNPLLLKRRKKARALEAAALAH
T3 sequence (P21452 whole entry): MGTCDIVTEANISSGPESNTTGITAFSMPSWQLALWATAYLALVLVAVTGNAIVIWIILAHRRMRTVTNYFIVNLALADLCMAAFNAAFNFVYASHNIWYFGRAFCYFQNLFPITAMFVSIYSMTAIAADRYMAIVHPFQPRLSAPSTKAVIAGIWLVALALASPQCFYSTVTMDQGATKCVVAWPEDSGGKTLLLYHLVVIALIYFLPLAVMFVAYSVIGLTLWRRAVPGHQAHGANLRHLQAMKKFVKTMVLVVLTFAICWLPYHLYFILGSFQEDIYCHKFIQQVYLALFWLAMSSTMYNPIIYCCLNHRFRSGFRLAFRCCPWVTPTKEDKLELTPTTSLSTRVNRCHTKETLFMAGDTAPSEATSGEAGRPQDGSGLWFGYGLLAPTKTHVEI
MAPKAP-K3 (h), sequence (Q16644 whole entry): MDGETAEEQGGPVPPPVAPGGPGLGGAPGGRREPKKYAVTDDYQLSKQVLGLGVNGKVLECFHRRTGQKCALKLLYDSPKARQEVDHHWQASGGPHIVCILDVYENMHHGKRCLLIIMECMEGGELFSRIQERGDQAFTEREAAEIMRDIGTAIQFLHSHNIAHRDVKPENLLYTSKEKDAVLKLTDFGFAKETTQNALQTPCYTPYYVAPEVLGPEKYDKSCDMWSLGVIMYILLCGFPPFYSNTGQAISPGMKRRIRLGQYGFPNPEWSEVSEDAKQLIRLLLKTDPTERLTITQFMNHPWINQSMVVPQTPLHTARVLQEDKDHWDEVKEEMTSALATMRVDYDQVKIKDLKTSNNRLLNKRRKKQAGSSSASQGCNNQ
T1 sequence (P32245 whole entry): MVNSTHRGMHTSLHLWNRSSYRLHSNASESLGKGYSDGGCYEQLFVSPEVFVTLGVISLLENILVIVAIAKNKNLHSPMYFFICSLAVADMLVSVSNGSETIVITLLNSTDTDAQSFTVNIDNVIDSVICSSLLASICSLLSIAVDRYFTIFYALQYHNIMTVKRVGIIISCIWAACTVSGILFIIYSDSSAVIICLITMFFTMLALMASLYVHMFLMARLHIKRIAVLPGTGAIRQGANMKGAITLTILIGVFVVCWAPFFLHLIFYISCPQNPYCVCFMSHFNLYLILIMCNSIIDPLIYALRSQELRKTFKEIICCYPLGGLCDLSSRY
T2 sequence (P28223 whole entry): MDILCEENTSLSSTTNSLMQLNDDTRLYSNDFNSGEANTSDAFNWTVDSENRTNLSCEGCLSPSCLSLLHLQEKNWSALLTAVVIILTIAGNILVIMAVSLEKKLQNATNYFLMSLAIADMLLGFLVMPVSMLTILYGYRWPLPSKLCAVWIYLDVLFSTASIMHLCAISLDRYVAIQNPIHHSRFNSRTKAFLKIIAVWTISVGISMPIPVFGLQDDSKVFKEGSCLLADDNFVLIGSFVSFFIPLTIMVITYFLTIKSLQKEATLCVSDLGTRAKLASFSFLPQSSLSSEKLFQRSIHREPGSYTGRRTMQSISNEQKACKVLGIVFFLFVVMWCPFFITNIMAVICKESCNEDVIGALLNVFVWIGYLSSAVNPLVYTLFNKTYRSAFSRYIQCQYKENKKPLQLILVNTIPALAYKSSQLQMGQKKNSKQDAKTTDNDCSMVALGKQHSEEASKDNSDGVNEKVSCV
CaMKI (h), sequence (Q14012 whole entry): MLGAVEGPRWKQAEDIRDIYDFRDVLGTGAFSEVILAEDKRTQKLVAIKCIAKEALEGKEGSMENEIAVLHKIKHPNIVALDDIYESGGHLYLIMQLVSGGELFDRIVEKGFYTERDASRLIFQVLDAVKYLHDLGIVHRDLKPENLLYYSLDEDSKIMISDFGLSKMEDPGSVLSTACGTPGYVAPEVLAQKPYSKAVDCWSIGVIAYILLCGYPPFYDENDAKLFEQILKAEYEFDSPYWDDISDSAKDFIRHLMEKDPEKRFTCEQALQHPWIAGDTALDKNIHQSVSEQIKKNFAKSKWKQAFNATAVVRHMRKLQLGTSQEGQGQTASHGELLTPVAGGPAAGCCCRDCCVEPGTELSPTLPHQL
Fgr (h), sequence (P09769 whole entry): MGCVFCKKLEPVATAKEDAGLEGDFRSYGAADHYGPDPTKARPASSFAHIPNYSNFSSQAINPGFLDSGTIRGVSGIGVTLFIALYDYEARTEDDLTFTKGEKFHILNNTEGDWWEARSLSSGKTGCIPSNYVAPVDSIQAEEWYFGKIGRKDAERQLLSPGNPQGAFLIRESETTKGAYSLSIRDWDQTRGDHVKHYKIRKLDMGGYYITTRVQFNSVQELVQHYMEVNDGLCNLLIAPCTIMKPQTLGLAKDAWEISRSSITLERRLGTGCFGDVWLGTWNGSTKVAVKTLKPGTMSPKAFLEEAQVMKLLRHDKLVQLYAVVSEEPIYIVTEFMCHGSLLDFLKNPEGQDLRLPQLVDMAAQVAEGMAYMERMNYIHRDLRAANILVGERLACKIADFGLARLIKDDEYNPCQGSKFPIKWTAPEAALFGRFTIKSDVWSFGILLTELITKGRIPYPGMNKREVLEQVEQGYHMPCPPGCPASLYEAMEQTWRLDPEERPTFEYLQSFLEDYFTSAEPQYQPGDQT
266 human kinases (Homo sapiens, UniProt Q9H1R3), sequence (Q9H1R3 whole entry): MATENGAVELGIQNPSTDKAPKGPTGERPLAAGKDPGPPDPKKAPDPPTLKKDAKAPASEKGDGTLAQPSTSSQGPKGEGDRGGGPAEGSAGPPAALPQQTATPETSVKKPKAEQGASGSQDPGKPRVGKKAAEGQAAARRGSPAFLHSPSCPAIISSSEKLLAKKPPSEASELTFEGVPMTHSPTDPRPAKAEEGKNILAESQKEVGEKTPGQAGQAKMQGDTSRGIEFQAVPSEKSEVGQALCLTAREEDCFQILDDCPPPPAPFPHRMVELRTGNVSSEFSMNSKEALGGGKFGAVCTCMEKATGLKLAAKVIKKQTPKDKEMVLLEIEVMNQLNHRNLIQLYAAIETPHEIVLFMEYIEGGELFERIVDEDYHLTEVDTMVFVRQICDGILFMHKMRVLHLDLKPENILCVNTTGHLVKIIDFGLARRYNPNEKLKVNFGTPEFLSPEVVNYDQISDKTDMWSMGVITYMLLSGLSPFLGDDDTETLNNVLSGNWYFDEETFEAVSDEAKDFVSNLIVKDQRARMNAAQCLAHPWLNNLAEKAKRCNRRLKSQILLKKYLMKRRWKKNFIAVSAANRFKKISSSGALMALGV
CaMKIV, sequence (Q16566 whole entry, species assumed): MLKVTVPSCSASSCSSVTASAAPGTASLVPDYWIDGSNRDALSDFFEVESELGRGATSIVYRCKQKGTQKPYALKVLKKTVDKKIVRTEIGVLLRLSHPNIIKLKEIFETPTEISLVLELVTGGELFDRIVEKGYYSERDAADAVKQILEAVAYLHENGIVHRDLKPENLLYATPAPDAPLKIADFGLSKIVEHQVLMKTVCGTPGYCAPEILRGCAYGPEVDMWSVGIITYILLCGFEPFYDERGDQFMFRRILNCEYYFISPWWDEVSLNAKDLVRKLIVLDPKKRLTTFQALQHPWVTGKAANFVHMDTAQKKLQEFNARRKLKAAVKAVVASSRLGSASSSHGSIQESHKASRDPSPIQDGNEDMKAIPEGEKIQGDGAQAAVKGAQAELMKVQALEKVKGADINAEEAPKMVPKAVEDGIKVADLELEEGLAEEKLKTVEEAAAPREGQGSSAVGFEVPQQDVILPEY

## FAKLAARLYRKALARQLGVAA [MMI-0300]
[1]
  gross scar appearance vs PBS-treated control mouse: less inflammation and less scar formation
266 human kinases [2]
  off-target kinase inhibition: very limited off-target kinase inhibition

## YARAAARQARAKALARQLGVAA [MMI-0100]
CaMKI (h)
  IC50: 11.7 µM
CaMKI (h); read-out: inhibition of kinase activity of CaMKI
  inhibition at 100 µM: > 65%
MSK1 (h)
  IC50: 102 µM
EphA2 (h)
  IC50: 181 µM
Pim-1 (h)
  IC50: 71.7 µM
FGFR2 (h)
  IC50: 172 µM
CaMK1δ (h)
  IC50: 45.8 µM
Fes(h)
  IC50: 174 µM
Fgr (h)
  IC50: 141 µM
Yes (h)
  IC50: 114 µM
MAPKAP-K2 (h)
  IC50: 12.1 µM
MAPKAP-K2 (h); at 100 μM, in vitro, read-out: inhibition of kinase activity of MK2
  inhibition at 100 µM: > 65%
MAPKAP-K3 (h)
  IC50: 15.8 µM
MAPKAP-K3 (h); at 100 μM, in vitro, read-out: inhibition of kinase activity of MK3
  inhibition at 100 µM: > 65%
TrkB (h)
  IC50: 4.6 µM
TrkB (h); at 100 μM, in vitro
  inhibition at 100 µM: > 65%
Melanocortin 4; concentration not given
  inhibition of off-target protein: less than 30%
Melanocortin 4; [5]
  activity at 100 µM: 81%
Serotonin 2A; concentration not given
  inhibition of off-target protein: less than 30%
Serotonin 2A; [5]
  activity at 100 µM: 86%
Neurokinin 2; concentration not given
  inhibition of off-target protein: less than 30%
Neurokinin 2; [5]
  activity at 100 µM: 85%
LOK (h)
  IC50: 47.6 µM
EGFR (L861Q) (h)
  IC50: 128 µM
DRAK1 (h)
  IC50: 78.3 µM
DMPK (h)
  IC50: 34.1 µM
266 human kinases [3]
  activity at 100 µM: 85%

## KAFAKLAARLYRKALARQLGVAA [MMI-0400]
266 human kinases [2]
  off-target kinase inhibition: very limited off-target kinase inhibition

## autocamtide-2 related inhibitory peptide [AIP]
CaMKIV
  CaMKIV activity: not affected
[4]; AIP 1 μM
  CaMKII activity: inhibited completely
[4]
  IC50: 0.1 µM
PKA
  PKA activity: not affected
PKC
  PKC activity: not affected
